Reference: US11884647B2, “Compounds and methods for targeting pathogenic blood vessels” (THE REGENTS OF THE UNIVERSITY OF CALIFORNIA, priority 2019, dated 2024)

Key:
[1] = tested on: tumor endothelial cells (CT26.CL25 colon cancer tumor); assay: Colon CT26 ex vivo model of tumor angiogenesis; type: cell-based; settings: Mus musculus, CT26, 48 h, read-out: Cell death
Method: This example describes a procedure to prepare a primary tumor angiogenesis model for assessing the efficacy of anti-cancer candidate agents.
1. The day before the experiment, spray all necessary tools with 70% ethanol and sterilize them under UV light overnight, including blade, dissecting and micro-dissecting scissors and […]. Place 24-well dishes at 4° C. to pre-chill plates and thaw Matrigel 24 hours before tumor dissection.
2. Spray 70% ethanol on working bench. Prepare two sterile petri dishes with 10 mL sterile PBS. Steps 3 and 4 are for mouse tumor models. For fresh human tumor, directly go to step 5.
3. Euthanize the tumor-bearing mice. Spray 70% ethanol on the mouse and remove the tumor using sterilized dissecting tools (avoid the fur). Rinse the tumor in petri dish with sterile PBS to remove ethanol and fur. Transfer the tumor to a new petri dish with PBS for dissection. Place the dish on ice.
4. Using pre-chilled sterile pipet tips to seed regular Matrigel in 24 well plates on ice. Matrigel (30 μL) is dropped in the middle of each well without touching the edge of the well (avoid introducing bubbles if possible).
5. Cut the tumor in halves using the sterile blade. Identify and isolate healthy tumor tissue that is not necrotic and is within the tumor capsule. Cut the healthy tumor tissue into small pieces. For instance, a suitable size for the tumor tissue is 0.5 mm (H)×0.5 mm (L)×0.3 mm (D) with a total volume of 0.075 mm^3.
6. Gently transfer and embed each tumor piece in the Matrigel drop in the 24-well plate. Place the embedded piece in the bottom and middle of each Matrigel drop. Keep the plate on ice all the time.
7. After seeding the tumor pieces, plates are incubated in a 37° C. cell culture incubator without medium for 10 minutes in order for the Matrigel to solidify.
8. Endothelial Growth Medium (0.5 mL) is added to each well and incubated at 37° C. with 5% CO2. Wait until the new endothelial cells have grown out of the tumor or are larger than 3 mm in diameter until treatment. This usually takes 4 days for the LL2 Lewis lung cancer model and 7 days for the CT26 colon cancer model. For human tumor models, the growth time is typically 2-3 weeks, depending on the tumor type. Media is changed every 4 days during prolonged culture. Typically, when the tumor tissue grows to 2 mm in diameter, it is good for drug testing. A size of about 3 mm in diameter can make visualization easier.
9. When the assay is ready to be analyzed for cell death (e.g., 48 hours after drug addition), prepare the dye mixture by mixing 6 μL of green dye to stain live cells (5 mg/mL Fluorescein diacetate or FDA in DMSO) with 30 μL of red dye (2.5 mg/mL Propidium iodide or PI in PBS) to stain dead cells in an Eppendorf tube. The FDA dye needs to be stored frozen in a −20° C. freezer because it has a labile ester bond.
10. Add 1 μL of the dye mixture to each well of the 24-well dish. It is usually performed one 24-well dish at a time given the amount of time needed to take pictures (the green dye is not as stable in the cells in the long term).
11. Gently rock the dish a few times to mix the dye with the media in the wells and incubate the dish at 37° C. for 10 min (too long incubation can make the green signal too intense).
12. Wash each well with 0.5 mL of sterile PBS and then add 0.5 mL of phenol red free SFM to each well. Alternatively 0.5 mL of regular Endothelial Cell Growth Media can be added to each well if this well needs to be continuously maintained after the experiment.
13. Look through all wells on an inverted microscope using the 2× objective lens to observe morphological changes.
14. Taking pictures in the red and green channels would allow not only the recording of the result but also more accurate quantitation of the result. To take pictures for all the wells, first pick a well that has robust red and green signals. […]

[2] = tested on: tumor endothelial cells (LL/2 lung cancer tumor); assay: Lung LL2 ex vivo model of tumor angiogenesis; type: cell-based, mouse; settings: for cytotoxicity at 40 µM / cytotoxicity at 20 µM: Mus musculus, Endothelial cell, 48 h, read-out: Cell death
Procedure, shortened: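 Read-out is live/dead fluorescence imaging (fluorescein diacetate green, propidium iodide red, 10 min at 37° C) at 2×, taken e.g. 48 h after drug addition. Fragments of mouse LL2 tumor are cultured in Matrigel with endothelial growth medium, usually 4 days, until new endothelial cells grow out, then treated.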

Structure (SMILES)	cytotoxicity at 40 µM [1] [%]	cytotoxicity at 40 µM [2] [%]	also measured
CCCCCCCOc1ccc(S(=O)(=O)c2cnc3ccc(SC)cc3c2N2CCC(N3CCCCC3)CC2)cc1 [compound 219, 4-([1,4′-bipiperidin]-1′-yl)-3-((4-(heptyloxy)phenyl)sulfonyl)-6-(methylthio)quinoline]	90	60	
CCc1ccc(S(=O)(=O)c2cnc3ccc([N+](=O)[O-])cc3c2N2CCC(O)CC2)cc1 [compound 75, 1-(3-((4-ethylphenyl)sulfonyl)-6-nitroquinolin-4-yl)piperidin-4-ol]	0	80	
CCCCOc1ccc(S(=O)(=O)c2cnc3ccc(C(=O)OCC)cc3c2N2CCCN(C)CC2)cc1 [compound 158, ethyl 3-((4-butoxyphenyl)sulfonyl)-4-(4-methyl-1,4-diazepan-1-yl)quinoline-6-carboxylate]	100	100	
CCCCCCCOc1ccc(S(=O)(=O)c2cnc3ccc([S+](C)[O-])cc3c2N2CCCN(C)CC2)cc1 (stereo not drawn) [compound 220, 3-((4-(heptyloxy)phenyl)sulfonyl)-4-(4-methyl-1,4-diazepan-1-yl)-6-(methylsulfinyl)quinoline]	100	100	
CCCCOc1ccc(S(=O)(=O)c2cnc3ccc(OC(F)(F)F)cc3c2N2CCC(N3CCCCC3)CC2)cc1 [compound 119, 4-([1,4′-bipiperidin]-1′-yl)-3-((4-butoxyphenyl)sulfonyl)-6-(trifluoromethoxy)quinoline]			cytotoxicity at 20 µM [1]: 50%; cytotoxicity at 20 µM [2]: 100%
CCOC(=O)C1CCN(c2c(S(=O)(=O)c3ccc(CC)cc3)cnc3ccc(OC(F)(F)F)cc23)CC1 [compound 47, ethyl 1-(3-((4-ethylphenyl)sulfonyl)-6-(trifluoromethoxy)quinolin-4-yl)piperidine-4-carboxylate]	10	50	
CCOC(=O)c1ccc2ncc(S(=O)(=O)c3ccc(OC)cc3)c(N(CCO)CCO)c2c1 [compound 156, ethyl 4-(bis(2-hydroxyethyl)amino)-3-((4-methoxyphenyl)sulfonyl)quinoline-6-carboxylate]	0		Cell death ([2]; Lung LL2 ex vivo, Conc. 40 μm, drug treatment two days): 30%
CCc1ccc(S(=O)(=O)c2cnc3ccc(CC#N)cc3c2N2CCC(N3CCCCC3)CC2)cc1 [compound 55, 2-(4-([1,4′-bipiperidin]-1′-yl)-3-((4-ethylphenyl)sulfonyl)quinolin-6-yl)acetonitrile]	50	70	
CCc1ccc(S(=O)(=O)c2cnc3ccc(OC(F)(F)F)cc3c2-n2nnc3ccccc32)cc1 [compound 112, 4-(1H-benzo[d][1,2,3]triazol-1-yl)-3-((4-ethylphenyl)sulfonyl)-6-(trifluoromethoxy)quinoline]	10		cytotoxicity at 20 µM [2]: 70%
CCCCN(CCCC)c1c(S(=O)(=O)c2ccc(CC)cc2)cnc2ccc(OC(F)(F)F)cc12 [compound 87, N,N-dibutyl-3-((4-ethylphenyl)sulfonyl)-6-(trifluoromethoxy)quinolin-4-amine]	0	0	
CCCCCCCOc1ccc(S(=O)(=O)c2cnc3ccc([S+](C)[O-])cc3c2N2CCC(N3CCCC(O)C3)CC2)cc1 (stereo not drawn) [compound 254, 1′-(3-((4-(heptyloxy)phenyl)sulfonyl)-6-(methylsulfinyl)quinolin-4-yl)-[1,4′-bipiperidin]-3-ol]			cytotoxicity at 10 µM [1]: 40%; cytotoxicity at 20 µM [2]: 100%
CCOC(=O)c1ccc2ncc(S(=O)(=O)c3ccc(CC)cc3)c(-n3cncn3)c2c1 [compound 80, ethyl 3-((4-ethylphenyl)sulfonyl)-4-(1H-1,2,4-triazol-1-yl)quinoline-6-carboxylate]			cytotoxicity at 10 µM [1]: 100%; cytotoxicity at 20 µM [2]: 100%
CCCCOc1ccc(S(=O)(=O)c2cnc3ccc(OC(F)(F)F)cc3c2N2CCCN(C)CC2)cc1 [compound 151, 3-((4-butoxyphenyl)sulfonyl)-4-(4-methyl-1,4-diazepan-1-yl)-6-(trifluoromethoxy)quinoline]	100	100	
COc1ccc(S(=O)(=O)c2cnc3ccc(OC(F)(F)F)cc3c2N2CCC(O)CC2)cc1 [compound 44, 1-(3-((4-methoxyphenyl)sulfonyl)-6-(trifluoromethoxy)quinolin-4-yl)piperidin-4-ol]	0	50	
COc1ccc(S(=O)(=O)c2cnc3ccc(OC(F)(F)F)cc3c2N2CCC(O)CC2)cc1OC [compound 58, 1-(3-((3,4-dimethoxyphenyl)sulfonyl)-6-(trifluoromethoxy)quinolin-4-yl)piperidin-4-ol]	50	50	
CCc1ccc(S(=O)(=O)c2cnc3ccc([N+](=O)[O-])cc3c2N(CC)CC)cc1 [compound 78, N,N-diethyl-3-((4-ethylphenyl)sulfonyl)-6-nitroquinolin-4-amine]	0	40	
CCOC(=O)c1ccc2ncc(S(=O)(=O)c3ccc(CC)cc3)c(N3CCC(O)CC3)c2c1 [compound 62, ethyl 3-((4-ethylphenyl)sulfonyl)-4-(4-hydroxypiperidin-1-yl)quinoline-6-carboxylate]	70	30	
CCCCOc1ccc(S(=O)(=O)c2cnc3ccc([S+](C)[O-])cc3c2N2CCCN(CCN3CCCC3)CC2)cc1 (stereo not drawn) [compound 210, 3-((4-butoxyphenyl)sulfonyl)-6-(methylsulfinyl)-4-(4-(2-(pyrrolidin-1-yl)ethyl)-1,4-diazepan-1-yl)quinoline]	70	50	
CCCCOc1ccc(S(=O)(=O)c2cnc3ccc(C(=O)N(CC)CC)cc3c2N2CCC(N3CCCCC3)CC2)cc1 [compound 201, 4-([1,4′-bipiperidin]-1′-yl)-3-((4-butoxyphenyl)sulfonyl)-N,N-diethylquinoline-6-carboxamide]	10	30	
CCCCOc1ccc(S(=O)(=O)c2cnc3ccc(C(=O)OCC)cc3c2N2CCC(N3CCN(CCO)CC3)CC2)cc1 [compound 214, ethyl 3-((4-butoxyphenyl)sulfonyl)-4-(4-(4-(2-hydroxyethyl)piperazin-1-yl)piperidin-1-yl)quinoline-6-carboxylate]	100	100	
CCCCCCCOc1ccc(S(=O)(=O)c2cnc3ccc([S+](C)[O-])cc3c2N2CCC(N3CCCCC3)CC2)cc1 (stereo not drawn) [compound 221, 4-([1,4′-bipiperidin]-1′-yl)-3-((4-(heptyloxy)phenyl)sulfonyl)-6-(methylsulfinyl)quinoline]	100	100	
CCc1ccc(S(=O)(=O)c2cnc3ccc(OC(F)(F)F)cc3c2N(CC)CC)cc1 [compound 81, N,N-diethyl-3-((4-ethylphenyl)sulfonyl)-6-(trifluoromethoxy)quinolin-4-amine]	0	0	
CCCCOc1ccc(S(=O)(=O)c2cnc3ccc(SC)cc3c2N2CCCN(C)CC2)cc1 [compound 160, 3-((4-butoxyphenyl)sulfonyl)-4-(4-methyl-1,4-diazepan-1-yl)-6-(methylthio)quinoline]	100	100	
CCCCOc1ccc(S(=O)(=O)c2cnc3ccc(S(C)(=O)=O)cc3c2N2CCCN(C)CC2)cc1 [compound 164, 3-((4-butoxyphenyl)sulfonyl)-4-(4-methyl-1,4-diazepan-1-yl)-6-(methylsulfonyl)quinoline]	100	95	
